One data set concerns T. mentagrophyte. Description: Activity against dermatophytes. Format: cell-based. The arrangement: unit not given here. An excerpt: (§1) The in-vitro evaluation of the antifungal activity of the compounds can be performed by determining the minimum inhibitory concentration (MIC) as shown in Table 1 which is the concentration of the test compound in Rosewell Park Memorial Institute (RPMI) 1640 liquid medium buffered with 3-(Morpholino)propanesulphonic acid (MOPS) to pH 7, at which there is significant inhibition of the particular fungi. In practice the National Committee for Clinical Laboratory Standard (NCCLS) M27A document for Candida and Cryptococcus and M38P for Aspergillus was used to determine the MIC against yeast and filamentous fungi with suitable modifications for dermatophytes to other filamentous fungi. Three quality control strains were included each time the MIC were determined and readings recorded only when the Quality Control results fell into the acceptable range. After MIC results had been recorded, 100 μl from each of the well showing no growth was spread over Sabouraud Dextrose Agar (SDA) to determine the minimum fungicidal concentration (MFC) as shown in Table 2.
(§2) A comparative in vitro and in vivo biologically activity data of the compound of our invention, 2-{[1R,2R]-2-(2,4-Difluorophenyl)-2-hydroxy-1-methyl-3-(1H-1,2,4-triazole-1-yl)propyl}-4-[(2′,2′,3′,3′-tetrafluoropropoxyphenyl)-3-(2H,4H)-1,2,4-thiotriazolone (Compound No. 3) with 2-[(1R,2R)-2-(2,4-difluorophenyl)-2-hydroxy-1-methyl-3-(1H-1,2,4-triazol-1-yl)propyl]-4-(2′,2′,3′,3′-tetraflouropropoxyphenyl)-3(2H,4H)-1,2,4-triazolone (TAK 187) and standard antifungal pharmaceuticals is given below: […]

For a further data set, the system named is T. rubrum. Description: Activity against dermatophytes. Further details: unit not given here. It counts as cell-based.
Text: as §1, §2

The next data set deals with Rhizoupus spp. isolates. Description: Comparative in vitro MIC, isolate panel. It counts as cell-based.
Text: as §1, §2

For data set [1], the system named is Aspergillus fumigatus isolates. Description: Comparative in vitro MIC, isolate panel. Format: cell-based.
Text: as §1, §2

Data set [2] deals with Penicillium spp. isolates. Description: Comparative in vitro MIC, isolate panel. It counts as cell-based.
Text: as §1, §2

A further data set concerns Fusarium spp. isolates. Description: Comparative in vitro MIC, isolate panel. It counts as cell-based.
Text: as §1, §2

For a further data set, the system named is All fungal pathogens. Description: Comparative in vitro MIC, isolate panel. Format: cell-based.
Text: as §1, §2

The subject of the next data set is All Candida isolates. Description: Comparative in vitro MIC, isolate panel. Format: cell-based.
Text: as §1, §2

For a further data set, the system named is All Filamentous isolates. Description: Comparative in vitro MIC, isolate panel. Format: cell-based.
Text: as §1, §2

In data set [3] the test system is filamentous species of fungi. Description: Activity against filamentous fungi (statement in words). It counts as cell-based.
Text: as §1

In the next data set the test system is Aspergillus fumigatous. Description: In vivo anti-fungal activity, ED50 in systemically infected mice. Further details: species or system Swiss albino mice. The conditions noted are these: mice infected i.v. with Aspergillus fumigatous, dosing for five days. On the procedure:
The in-vivo evaluation of the compound can be carried out at a series of dose levels by oral or I. V. injection to mice which are inoculated I.V. with the minimum lethal dose of Candida albicans, Cryptococcus neoformans or Aspergillus fumigatus by the tail vein. Activity is based on the survival of a treated group of mice after the death of an untreated group of mice. For Aspergillus and Cryptococcus infections, target organs were cultured after treatment to document the number of mice cured of the infection for further assessment of activity.
Method: Briefly, Swiss albino mice weighing 20±2 G were injected intravenously (tail vein) with sufficient fungal cells to kill 100% of the untreated animals for Aspergillus fumigatous strain used. In all cases each group comprised of six mice. Five does levels, utilizing doubling dilution range, were employed per determination ranging from 25 to 1.56 mg/kg BW. Dosing was carried out for five days starting after 30 minutes of infection. […] Treated animals were monitored twice daily for 14 days post infection at which time the experiment was terminated and ED50 was calculated.

The conditions of data set [4]: serum drug concentration after several days of treatment 25 to 100 times above the MIC for C. neoformans; cited from earlier work.

The values that follow come from patent US6710049B2, “Azole compounds as anti-fungal agents” (Ranbaxy Laboratories Limited, priority 2000, dated 2004).

Values after ≈ are worked out from the molar mass of the structure shown.

For `C[C@@H](n1ncn(-c2ccc(OCC(F)(F)C(F)F)cc2)c1=S)[C@](O)(Cn1cncn1)c1ccc(F)cc1F` [Compound No. 3], the figures for the Activity against dermatophytes in the data set with T. mentagrophyte and in the data set with T. rubrum were 0.016 and 0.004, respectively. Moreover, the MIC50 is 0.125 µg/mL (≈ 0.224 µM) with Rhizoupus spp. isolates; 0.125 µg/mL (≈ 0.224 µM) in [1]; 2 µg/mL (≈ 3.58 µM) in data set [2]; 8 µg/mL (≈ 14.3 µM) with Fusarium spp. isolates; 0.25 µg/mL (≈ 0.448 µM) in the data set on All fungal pathogens; 0.5 µg/mL (≈ 0.895 µM) against All Candida isolates. Further, the MIC50 against All Filamentous isolates stood at 0.25 µg/mL (≈ 0.448 µM). In addition, the MIC90 against Rhizoupus spp. isolates was 0.125 µg/mL (≈ 0.224 µM); in [1] it was 0.25 µg/mL (≈ 0.448 µM); in data set [2] it was 8 µg/mL (≈ 14.3 µM); against Fusarium spp. isolates, 8 µg/mL (≈ 14.3 µM); in the data set with All fungal pathogens, 2 µg/mL (≈ 3.58 µM); in the data set with All Candida isolates, 1 µg/mL (≈ 1.79 µM). The same molecule returned an MIC90 with All Filamentous isolates of 8 µg/mL (≈ 14.3 µM). The “MIC G.M.” value amounted to 0.125 µg/mL (≈ 0.224 µM) against Rhizoupus spp. isolates; 0.112 µg/mL (≈ 0.201 µM) in data set [1]; 1.516 µg/mL (≈ 2.71 µM) in data set [2]; 8 µg/mL (≈ 14.3 µM) in the data set with Fusarium spp. isolates; 0.285 µg/mL (≈ 0.51 µM) against All fungal pathogens; 0.1 µg/mL (≈ 0.179 µM) against All Candida isolates. For the same molecule, the “MIC G.M.” value with All Filamentous isolates amounted to 0.328 µg/mL (≈ 0.587 µM). For the same molecule, in [3], the “activity against clinically important filamentous species of fungi” value is recorded as “unexpectedly potent activity”. In addition, the fungicidal character result in [3] (b38: against some filamentous fungi) is recorded as “fungicidal”. Also, the values for the ED50 with Aspergillus fumigatous (Day 7 post infection) and with Aspergillus fumigatous (Day 14 post infection) were 2.33 mg/kg body weight and 6.25 mg/kg body weight, respectively.

For the molecule `CC[C@@H]([C@H](C)O)n1ncn(-c2ccc(N3CCN(c4ccc(OC[C@@H]5CO[C@@](Cn6cncn6)(c6ccc(F)cc6F)C5)cc4)CC3)cc2)c1=O` [SCH 56592], the “detectability in CSF” value in data set [4] is reported as “undetectable”.

`CN(C/C=C/C#CC(C)(C)C)Cc1cccc2ccccc12` [Terbina]: the Activity against dermatophytes worked out at 0.002 with T. mentagrophyte and 0.016 with T. rubrum.
